According to paper PMC5218480 (PLoS ONE, 2017):

System: MV-4-11 cells
Assay: Gene expression microarray analysis (Affymetrix PrimeView) and GSEA
Format: cell-based, human
Design: RFU PODN (11730768_x_at) / Fold change /veh PODN (11730768_x_at) / RFU LINC00158 (11744669_a_at) / Fold change /veh LINC00158 (11744669_a_at) / RFU DUSP10 (11751237_a_at) / Fold change /veh DUSP10 (11751237_a_at) / RFU ID3 (11757404_x_at) / Fold change /veh ID3 (11757404_x_at) / RFU PLEKHG5 (11737974_s_at) / Fold change /veh PLEKHG5 (11737974_s_at) / RFU LRRC4B (11730491_at) / Fold change /veh LRRC4B (11730491_at) / RFU GIMAP4 (11747438_a_at) / Fold change /veh GIMAP4 (11747438_a_at) / RFU KRT8 (11758183_x_at) / Fold change /veh KRT8 (11758183_x_at) / RFU CNN1 (11734310_a_at) / Fold change /veh CNN1 (11734310_a_at) / RFU VPS37D (11726825_at) / Fold change /veh VPS37D (11726825_at) / RFU C10orf10 (11716522_x_at) / Fold change /veh C10orf10 (11716522_x_at) / RFU KIR2DL2 /// KIR2DL4 /// KIR2DL5A /// KIR2DL5B /// KIR2DS1 /// KIR2DS2 /// KIR2DS3 /// KIR2DS4 /// KIR3DL3 /// KIR3DL3 /// KIR3DS1 (11738374_at) / Fold change /veh KIR2DL2 /// KIR2DL4 /// KIR2DL5A /// KIR2DL5B /// KIR2DS1 /// KIR2DS2 /// KIR2DS3 /// KIR2DS4 /// KIR3DL3 /// KIR3DL3 /// KIR3DS1 (11738374_at) / RFU C1QL1 (11718748_at) / Fold change /veh C1QL1 (11718748_at) / RFU TMPRSS4 (11747572_a_at) / Fold change /veh TMPRSS4 (11747572_a_at) / RFU HAMP (11756126_x_at) / Fold change /veh HAMP (11756126_x_at) / RFU RNFT2 (11725882_a_at) / Fold change /veh RNFT2 (11725882_a_at) / RFU NR4A2 (11747474_a_at) / Fold change /veh NR4A2 (11747474_a_at) / RFU ABCC12 (11746883_a_at) / Fold change /veh ABCC12 (11746883_a_at) / RFU TMEM136 (11760407_x_at) / Fold change /veh TMEM136 (11760407_x_at) / RFU CLDN22 /// WWC2 (11732394_at) / Fold change /veh CLDN22 /// WWC2 (11732394_at) / RFU HLA-DPB1 (11760878_x_at) / Fold change /veh HLA-DPB1 (11760878_x_at) / RFU SPINT1 (11716480_a_at) / Fold change /veh SPINT1 (11716480_a_at) / RFU GAP43 (11754022_s_at) / Fold change /veh GAP43 (11754022_s_at) / RFU A4GNT (11735810_at) / Fold change /veh A4GNT (11735810_at) / RFU PRB3 (11715151_x_at) / Fold change /veh PRB3 (11715151_x_at) / RFU TUBB4B (11761932_at) / Fold change /veh TUBB4B (11761932_at) / RFU CAPN14 (11732068_a_at) / Fold change /veh CAPN14 (11732068_a_at) / RFU TMCC2 (11721928_a_at) / Fold change /veh TMCC2 (11721928_a_at) / RFU IRGQ (11745062_a_at) / Fold change /veh IRGQ (11745062_a_at) / RFU FAM174B (11720279_a_at) / Fold change /veh FAM174B (11720279_a_at) / RFU TMPRSS4 (11748680_a_at) / Fold change /veh TMPRSS4 (11748680_a_at) / RFU FAM212B (11763350_a_at) / Fold change /veh FAM212B (11763350_a_at) / RFU PLEKHG5 (11743358_a_at) / Fold change /veh PLEKHG5 (11743358_a_at) / RFU ZSCAN30 (11745921_a_at) / Fold change /veh ZSCAN30 (11745921_a_at) / RFU CMKLR1 (11741424_a_at) / Fold change /veh CMKLR1 (11741424_a_at) / RFU LOC101060620 /// MAPK8IP1 (11723275_at) / Fold change /veh LOC101060620 /// MAPK8IP1 (11723275_at) / RFU SPTSSB (11747773_x_at) / Fold change /veh SPTSSB (11747773_x_at) / RFU PRSS12 (11739890_at) / Fold change /veh PRSS12 (11739890_at) / RFU BIN1 (11741810_x_at) / Fold change /veh BIN1 (11741810_x_at) / RFU WNT11 (11732464_a_at) / Fold change /veh WNT11 (11732464_a_at) / RFU C10orf10 (11716521_a_at) / Fold change /veh C10orf10 (11716521_a_at) / RFU C5orf56 (11738089_at) / Fold change /veh C5orf56 (11738089_at) / RFU CYB561 (11721691_x_at) / Fold change /veh CYB561 (11721691_x_at) / RFU ANKRD19P (11752326_a_at) / Fold change /veh ANKRD19P (11752326_a_at) / RFU OR2T12 /// OR2T33 /// OR2T8 (11738714_s_at) / Fold change /veh OR2T12 /// OR2T33 /// OR2T8 (11738714_s_at) / RFU VCAN (11748164_a_at) / Fold change /veh VCAN (11748164_a_at) / RFU JSRP1 (11732532_at) / Fold change /veh JSRP1 (11732532_at) / RFU KRTAP10-11 (11738290_x_at) / Fold change /veh KRTAP10-11 (11738290_x_at) / RFU MYO3A (11730013_a_at) / Fold change /veh MYO3A (11730013_a_at) / RFU EBF3 (11725865_a_at) / Fold change /veh EBF3 (11725865_a_at) / RFU CAMK2N1 (11719241_x_at) / Fold change /veh CAMK2N1 (11719241_x_at) / RFU C5orf56 (11738088_a_at) / Fold change /veh C5orf56 (11738088_a_at) / RFU OLFML3 (11715873_a_at) / Fold change /veh OLFML3 (11715873_a_at) / RFU LOC100653217 /// NTM (11731650_a_at) / Fold change /veh LOC100653217 /// NTM (11731650_a_at) / RFU MAPK11 (11762145_a_at) / Fold change /veh MAPK11 (11762145_a_at) / RFU FIZ1 (11724087_x_at) / Fold change /veh FIZ1 (11724087_x_at) / RFU OASL (11726364_x_at) / Fold change /veh OASL (11726364_x_at) / RFU SOX15 (11748057_x_at) / Fold change /veh SOX15 (11748057_x_at) / RFU CD79A (11719716_a_at) / Fold change /veh CD79A (11719716_a_at) / RFU HIST1H1D (11736915_at) / Fold change /veh HIST1H1D (11736915_at) / RFU CASKIN2 (11723855_a_at) / Fold change /veh CASKIN2 (11723855_a_at) / RFU LOC730098 (11760151_x_at) / Fold change /veh LOC730098 (11760151_x_at) / RFU OR4N2 (11742367_at) / Fold change /veh OR4N2 (11742367_at) / RFU PRRT2 (11749266_a_at) / Fold change /veh PRRT2 (11749266_a_at) / RFU SNX32 (11753110_a_at) / Fold change /veh SNX32 (11753110_a_at) / RFU CDHR5 (11726645_a_at) / Fold change /veh CDHR5 (11726645_a_at) / RFU RCAN1 (11760418_a_at) / Fold change /veh RCAN1 (11760418_a_at) / RFU FAM167A (11723789_a_at) / Fold change /veh FAM167A (11723789_a_at) / RFU FAM26E (11764081_at) / Fold change /veh FAM26E (11764081_at) / RFU ISYNA1 (11749810_s_at) / Fold change /veh ISYNA1 (11749810_s_at) / RFU ACY1 (11761880_at) / Fold change /veh ACY1 (11761880_at) / RFU 11764098_at / Fold change /veh 11764098_at / RFU SAMD14 (11745864_x_at) / Fold change /veh SAMD14 (11745864_x_at) / RFU NPB (11741838_a_at) / Fold change /veh NPB (11741838_a_at) / RFU TMPRSS6 (11731388_a_at) / Fold change /veh TMPRSS6 (11731388_a_at) / RFU KRTAP10-2 (11738614_at) / Fold change /veh KRTAP10-2 (11738614_at) / RFU ARHGAP8 /// PRR5-ARHGAP8 (11727945_x_at) / Fold change /veh ARHGAP8 /// PRR5-ARHGAP8 (11727945_x_at) / RFU KRTAP5-7 /// NADSYN1 (11734609_at) / Fold change /veh KRTAP5-7 /// NADSYN1 (11734609_at) / RFU RASL12 (11751679_a_at) / Fold change /veh RASL12 (11751679_a_at) / RFU CDKN2B (11736163_a_at) / Fold change /veh CDKN2B (11736163_a_at) / RFU PRF1 (11729649_at) / Fold change /veh PRF1 (11729649_at) / RFU, ZNF638 /// ZNF638-IT1 / Fold change vs veh, ZNF638 /// ZNF638-IT1 / RFU, PANK3 / Fold change vs veh, PANK3 / RFU, SH3YL1 / Fold change vs veh, SH3YL1 / RFU, ZEB2 / Fold change vs veh, ZEB2 / RFU, NRIP1 / Fold change vs veh, NRIP1 / RFU, PTTG1IP / Fold change vs veh, PTTG1IP / RFU, CAPN2 / Fold change vs veh, CAPN2 / RFU, MED14 / Fold change vs veh, MED14 / RFU, SNORA58 / Fold change vs veh, SNORA58 / RFU, C1orf63 / Fold change vs veh, C1orf63 / RFU, LRRFIP1 / Fold change vs veh, LRRFIP1 / RFU, NDUFAF7 / Fold change vs veh, NDUFAF7 / RFU, SLC12A2 / Fold change vs veh, SLC12A2 / RFU, IBTK / Fold change vs veh, IBTK / RFU, ESF1 / Fold change vs veh, ESF1 / Fold change vs veh, TMEM50B / RFU, TAOK1 / Fold change vs veh, TAOK1 / RFU, ACBD3 / Fold change vs veh, ACBD3 / RFU, TMA16 / Fold change vs veh, TMA16 / RFU, RWDD3 / Fold change vs veh, RWDD3 / RFU, BCAT1 / Fold change vs veh, BCAT1 / RFU, EDEM3 / Fold change vs veh, EDEM3 / RFU, TMEM33 / Fold change vs veh, TMEM33 / RFU, WDR75 / Fold change vs veh, WDR75 / RFU, AHCTF1 / Fold change vs veh, AHCTF1 / RFU, TFRC / Fold change vs veh, TFRC / RFU, ZDHHC17 / Fold change vs veh, ZDHHC17 / RFU, NOM1 / Fold change vs veh, NOM1 / RFU, ARL8B / Fold change vs veh, ARL8B / RFU, ZBTB11 / Fold change vs veh, ZBTB11 / RFU, TAMM41 / Fold change vs veh, TAMM41 / RFU, KIAA1704 /// LOC100996395 / Fold change vs veh, KIAA1704 /// LOC100996395 / RFU, ING1 / Fold change vs veh, ING1 / RFU, TRMT61B / Fold change vs veh, TRMT61B / RFU, FUBP3 / Fold change vs veh, FUBP3 / RFU, TP53 / Fold change vs veh, TP53 / RFU, TNKS2 / Fold change vs veh, TNKS2 / RFU, ZFP14 / Fold change vs veh, ZFP14 / RFU, ACTR2 / Fold change vs veh, ACTR2 / RFU, PPP3R1 / Fold change vs veh, PPP3R1 / RFU, PIK3R1 / Fold change vs veh, PIK3R1 / RFU, HNRNPA1 / Fold change vs veh, HNRNPA1 / RFU, RNF170 / Fold change vs veh, RNF170 / RFU, ZNF28 / Fold change vs veh, ZNF28 / RFU, RNGTT / Fold change vs veh, RNGTT / RFU, OGT / Fold change vs veh, OGT / RFU, BRD1 / Fold change vs veh, BRD1 / RFU, MARS / Fold change vs veh, MARS / RFU, ZNF655 / Fold change vs veh, ZNF655 / RFU, FAHD1 / Fold change vs veh, FAHD1 / RFU, BDP1 / Fold change vs veh, BDP1 / RFU, LRRCC1 / Fold change vs veh, LRRCC1 / RFU, ARID1A / Fold change vs veh, ARID1A / RFU, ZNF146 / Fold change vs veh, ZNF146 / RFU, ZNF330 / Fold change vs veh, ZNF330 / RFU, GPN3 / Fold change vs veh, GPN3 / RFU, C9orf123 / Fold change vs veh, C9orf123 / RFU, N4BP2L2 / Fold change vs veh, N4BP2L2 / RFU, ARFIP1 / Fold change vs veh, ARFIP1 / RFU, FAM179B / Fold change vs veh, FAM179B / RFU, BCL10 / Fold change vs veh, BCL10 / RFU, UHRF1BP1L / Fold change vs veh, UHRF1BP1L / RFU, BET1 / Fold change vs veh, BET1 / RFU, CNOT2 / Fold change vs veh, CNOT2 / RFU, ZNF268 / Fold change vs veh, ZNF268 / Fold change vs veh, ZNF507 / RFU, DGCR2 / Fold change vs veh, DGCR2 / RFU, WDSUB1 / Fold change vs veh, WDSUB1 / Fold change vs veh, HSP90B1 /// MIR3652 / RFU, ADSS / Fold change vs veh, ADSS / RFU, GK / Fold change vs veh, GK / RFU, ZNF148 / Fold change vs veh, ZNF148 / RFU, TAF9 / Fold change vs veh, TAF9 / RFU, SLC1A5 / Fold change vs veh, SLC1A5 / RFU, SLMO2 / Fold change vs veh, SLMO2 / RFU, ABCC4 / Fold change vs veh, ABCC4 / RFU, LOC101060439 /// RAP1B / Fold change vs veh, LOC101060439 /// RAP1B / RFU, RFX7 / Fold change vs veh, RFX7 / RFU, GTPBP10 / Fold change vs veh, GTPBP10 / RFU, CNEP1R1 / Fold change vs veh, CNEP1R1 / RFU, BIVM-ERCC5 /// ERCC5 / Fold change vs veh, BIVM-ERCC5 /// ERCC5 / RFU, ILF3 / Fold change vs veh, ILF3 / RFU 11762660_at / Fold change /veh 11762660_at / RFU VCAN (11757783_s_at) / Fold change /veh VCAN (11757783_s_at) / RFU DDX43 (11728927_at) / Fold change /veh DDX43 (11728927_at) / RFU KRT8 (11758188_x_at) / Fold change /veh KRT8 (11758188_x_at) / RFU NKD1 (11759106_at) / Fold change /veh NKD1 (11759106_at) / RFU SRD5A1 (11742802_a_at) / Fold change /veh SRD5A1 (11742802_a_at) / RFU TPSAB1 /// TPSB2 (11721975_s_at) / Fold change /veh TPSAB1 /// TPSB2 (11721975_s_at) / RFU GSTM3 (11746129_a_at) / Fold change /veh GSTM3 (11746129_a_at) / RFU IL23R (11737362_x_at) / Fold change /veh IL23R (11737362_x_at) / RFU TMEM51 (11727254_a_at) / Fold change /veh TMEM51 (11727254_a_at) / RFU PIWIL2 (11732686_x_at) / Fold change /veh PIWIL2 (11732686_x_at) / RFU ORM1 (11744905_x_at) / Fold change /veh ORM1 (11744905_x_at) / RFU CCDC152 (11743942_at) / Fold change /veh CCDC152 (11743942_at) / RFU ECM1 (11717891_a_at) / Fold change /veh ECM1 (11717891_a_at) / RFU IL23R (11748794_a_at) / Fold change /veh IL23R (11748794_a_at) / RFU TNFAIP8L3 (11732012_x_at) / Fold change /veh TNFAIP8L3 (11732012_x_at) / RFU MBOAT4 (11741988_at) / Fold change /veh MBOAT4 (11741988_at) / RFU 11764193_at / Fold change /veh 11764193_at / RFU TMEM53 (11763286_at) / Fold change /veh TMEM53 (11763286_at) / RFU MAGEB2 (11727129_at) / Fold change /veh MAGEB2 (11727129_at) / RFU TMEM200A (11744735_a_at) / Fold change /veh TMEM200A (11744735_a_at) / RFU CCDC152 (11751479_a_at) / Fold change /veh CCDC152 (11751479_a_at) / RFU FAM211A (11726209_a_at) / Fold change /veh FAM211A (11726209_a_at) / RFU RGS16 (11746705_a_at) / Fold change /veh RGS16 (11746705_a_at) / RFU VCAN (11755009_s_at) / Fold change /veh VCAN (11755009_s_at) / RFU RHOB (11743442_s_at) / Fold change /veh RHOB (11743442_s_at) / RFU RGS16 (11720943_a_at) / Fold change /veh RGS16 (11720943_a_at) / RFU RGS16 (11720944_at) / Fold change /veh RGS16 (11720944_at) / RFU, VPS4B / Fold change vs veh, VPS4B / RFU, CREB1 / Fold change vs veh, CREB1 / RFU, DNAJC13 / Fold change vs veh, DNAJC13 / RFU, GNAQ / Fold change vs veh, GNAQ / RFU, CDK5R1 / Fold change vs veh, CDK5R1 / RFU, ZRANB3 / Fold change vs veh, ZRANB3 / RFU, CUL4A / Fold change vs veh, CUL4A / RFU, CCNY / Fold change vs veh, CCNY / RFU, UFL1 / Fold change vs veh, UFL1 / RFU, COG3 / Fold change vs veh, COG3 / RFU, DIAPH2 / Fold change vs veh, DIAPH2 / RFU, SKA2 / Fold change vs veh, SKA2 / RFU, AFF3 / Fold change vs veh, AFF3 / RFU, LMF1 / Fold change vs veh, LMF1 / RFU, IPO11 / Fold change vs veh, IPO11 / RFU, DFFB / Fold change vs veh, DFFB / RFU, FOXP1 / Fold change vs veh, FOXP1 / RFU, CARD8 / Fold change vs veh, CARD8 / RFU, STRN3 / Fold change vs veh, STRN3 / RFU, ADK / Fold change vs veh, ADK / RFU, RASSF2 / Fold change vs veh, RASSF2 / RFU, WIPF1 / Fold change vs veh, WIPF1 / RFU, LARP1B / Fold change vs veh, LARP1B / RFU, RASA1 / Fold change vs veh, RASA1 / RFU, RB1 / Fold change vs veh, RB1 / RFU, PPFIA1 / Fold change vs veh, PPFIA1 / RFU, MAT2A / Fold change vs veh, MAT2A / RFU, CCT5 / Fold change vs veh, CCT5 / RFU, WDR92 / Fold change vs veh, WDR92 / RFU, CUX1 / Fold change vs veh, CUX1 / RFU, TTC7A / Fold change vs veh, TTC7A / RFU, TMEM135 / Fold change vs veh, TMEM135 / RFU, DEPTOR / Fold change vs veh, DEPTOR / RFU, CPM / Fold change vs veh, CPM / RFU, DNAJB6 / Fold change vs veh, DNAJB6 / RFU, CACNA2D3 / Fold change vs veh, CACNA2D3 / RFU, DTX4 / Fold change vs veh, DTX4 / RFU, TFCP2 / Fold change vs veh, TFCP2 / RFU, GMCL1 /// GMCL1P1 / Fold change vs veh, GMCL1 /// GMCL1P1 / RFU, AEBP2 / Fold change vs veh, AEBP2 / RFU, SNHG1 /// SNORD22 /// SNORD25 /// SNORD26 /// SNORD27 /// SNORD28 /// SNORD29 /// SNORD31 / Fold change vs veh, SNHG1 /// SNORD22 /// SNORD25 /// SNORD26 /// SNORD27 /// SNORD28 /// SNORD29 /// SNORD31 / Fold change (Aza/veh), C12orf56 (ProbeSet 11735607_a_at) / Fold change (ACY-1035/veh), C12orf56 (ProbeSet 11735607_a_at) / Fold change (Aza/veh), FGFR1OP (ProbeSet 11751329_s_at) / Fold change (ACY-1035/veh), FGFR1OP (ProbeSet 11751329_s_at) / Fold change (Aza/veh), VPS36 (ProbeSet 11739960_a_at) / Fold change (ACY-1035/veh), VPS36 (ProbeSet 11739960_a_at) / RFU SYPL1 (11715823_x_at) / Fold change /veh SYPL1 (11715823_x_at) / RFU IGFBP7 (11715501_s_at) / Fold change /veh IGFBP7 (11715501_s_at) / RFU REEP3 (11722064_at) / Fold change /veh REEP3 (11722064_at) / RFU IGLL1 (11728026_x_at) / Fold change /veh IGLL1 (11728026_x_at): dose or concentration left out as unconfirmed
Conditions: ProbeSet 11752001_a_at; LIST D

## Nc1ccc(-c2cccs2)cc1NC(=O)c1ccc2c(c1)cc(C1CC1)n2CCN1CCOCC1 [ACY-1035]
  RFU, CUL4A: 438.04 RFU
